Assay results from paper PMC4052546 (Pharmaceuticals, 2011).
Read-outs that look alike come from different tables or passages of the source.

Assays:
[1] = Pharmacokinetics of AS and DHA in rat plasma after single and multiple intravenous AS injections (automated blood sampler, LC-MS/MS); format: in vivo, Sprague-Dawley rats; conditions: for Cmax / MRT / Tmax / clearance / AUC(0-t) / AUC / half-life / average plasma concentration over 0–72 h (Cav = AUC0–72 h/72): male, Sprague-Dawley, rat, plasma, iv; for AUC(0-t): read-out: AUC0–3 h; for AUC: read-out: AUCinfininty;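 on all read-outs here: blood drawn through a jugular vein catheter by an automated sampling system, plasma drug levels measured by LC-MS/MS with positive electrospray ionization against standard curves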
Experimental: The Culex ABS is a blood sampling and metabolism monitoring machine, which is controlled by its own internal computer. We were successful in evaluating PK for long-term periods by using this system. After jugular vein cannulation, study animals were individually placed in the system, which allowed for a micro-pump to infuse heparinized-saline (10 unit heparin/mL saline) at a rate of 1-2 μL/min to prevent coagulation within the catheter. Culex samples were obtained with precise blood volumes from the study animals and the total volume taken was less than 6% per day and 14% during the entire study period. Blood samples were maintained at 3 °C using Culex's temperature-controlled fractional collector. Plasma was separated from the blood samples and processed for drug extraction.
(§1) Three samples were collected during each phase of absorption, distribution, or elimination for full PK analysis on the first and last dosing days following intravenous bonus injection. Additionally, trough levels (pre-dose) samples were collected in between each dose to follow drug accumulation and a series PK approach (18 samples per animal) was used. Thus, each animal was dosed and plasma samples were obtained for up to three days. A total of 18 (0, 5, 15, 30, 45 min, 1, 2, 3, 6, 24.25, 48.167, 48.25, 48.5, 48.75, 49, 50, 51, and 54 h) samples were collected into cooled vials. 50 μL of blood per sample was collected pre-dosing and after dosing and 100 μL per sample was taken from 0.08 h to 56 h after dosing. During collection, blood samples were added into the vials, which contained dried heparin (50 units) on the bottom of each vial. Thus, a total blood volume of 1.75 mL was obtained from each rat during the three day treatment period (0.85 mL of blood on day 0, 0.1 mL on day 1, and 0.9 mL on day 2), which is 9.3% of the animals total blood volume. Subjects for replicated crossover design were followed FDA recommendation [22] with a 2 week wash out period. During wash-out period, if the catheter was blocked up by any reasons the jugular vein tubes were infused or replaced.
The samples were vortexed vigorously (set at 10 or max setting) for 8–10 sec followed by a 10,000 × g centrifugation at 4 °C for 10 min. Aliquots (approximately 250 μL ea) of the undisturbed supernatants were transferred into a 96-well plate for LC-MS/MS analyses. […] Drugs were chromatographically separated using an acetonitrile/ammonium acetate gradient through a Waters XTerra C18 column (2.1 × 50 mm, 3.5 μm particle size) and corresponding pre-column. Quantification was done using the most abundant daughter ions following positive electrospray ionization. Chromatograms were analyzed using Xcalibur mass spectrometry software. The responses-concentrations standard curves were fitted and weighted.
The area under the curve (AUC) was determined by the linear trapezoidal rule with extrapolation to infinity based on the concentration of the last time point divided by the terminal rate constant. The bioequivalence (BE) evaluation of the two formulations were analyzed by using BE software (WinNonlin 5.2, Pharsight Co. Mountain View, CA. USA) in rats for a NDA application.

[2] = Hematology and recovery study after multiple intravenous AS; format: in vivo, rats
Experimental: At 24 and 96 h after the final dose of Chinese and WRAIR intravenous AS, male and female animals were anesthetized by isoflurane inhalation anesthesia (Abbott Labs, North Chicago, IL, USA) delivered by a small-animal anesthesia system (Euthanex Corp, Palmer Park, PA, USA). Each animal was initially placed in a chamber primed with 5% isoflurane, and upon induction, maintained in a non-rebreathing mask at 2% isoflurane delivered with […]. […] One mL of the blood sample was placed in K3 EDTA tubes (Beckton Dickinson, Franklin Lakes, NJ, USA) for CBC analysis using the ABX Pentra 60 hematology analyzer (ABX diagnostics, Irvine, CA, USA). Another 0.7 mL of blood was placed in serum separator tubes (Becton Dickinson, Franklin Lakes, NJ, USA) for biochemistry analysis using commercial assay kits on the Vitros 250 Chemistry analyzer (Johnson & Johnson, Rochester, NY, USA). Reticulocyte analysis was performed utilizing light microscopy. After sample collection, rats were euthanized by cervical dislocation.

[3] = rat, in vivo
Text: An automated blood sampler (Culex ABS, Bioanalytical Systems, Inc. West Lafayette, IN) was used for rat blood sample collection.
as §1
The area under the curve (AUC) was determined by the linear trapezoidal rule with extrapolation to infinity based on the concentration of the last time point divided by the terminal rate constant.

malaria parasites = conditions: incubation in vitro; cited from earlier work
parasitemia = test system: parasitemia; set-up: method as in earlier work; conditions: intravenous AS, clinical trials; cited from earlier work
[4] = cited from earlier work
[5] = Chinese formulation (AS/NaHCO3), 20 mg/kg i.v. daily for 3 days, male rats, Period 1, Day 3
[6] = Chinese formulation (AS/NaHCO3), 20 mg/kg i.v. daily for 3 days, male rats, Period 2, Day 3
[7] = WRAIR formulation (AS/0.3M PBS Buffer), 20 mg/kg i.v. daily for 3 days, male rats, Period 2, Day 3
[8] = 20 mg/kg, Chinese formulation (AS/NaHCO3), 20 mg/kg i.v. daily for 3 days, male rats, Period 1, Day 1
[9] = 20 mg/kg, Chinese formulation (AS/NaHCO3), 20 mg/kg i.v. daily for 3 days, male rats, Period 1, Day 3
[10] = 20 mg/kg, Chinese formulation (AS/NaHCO3), 20 mg/kg i.v. daily for 3 days, male rats, Period 2, Day 1
[11] = 20 mg/kg, Chinese formulation (AS/NaHCO3), 20 mg/kg i.v. daily for 3 days, male rats, Period 2, Day 3
[12] = 20 mg/kg, WRAIR formulation (AS/0.3M PBS Buffer), 20 mg/kg i.v. daily for 3 days, male rats, Period 1, Day 1
[13] = 20 mg/kg, WRAIR formulation (AS/0.3M PBS Buffer), 20 mg/kg i.v. daily for 3 days, male rats, Period 1, Day 3
[14] = 20 mg/kg, WRAIR formulation (AS/0.3M PBS Buffer), 20 mg/kg i.v. daily for 3 days, male rats, Period 2, Day 1
[15] = 20 mg/kg, WRAIR formulation (AS/0.3M PBS Buffer), 20 mg/kg i.v. daily for 3 days, male rats, Period 2, Day 3
[16] = male, Sprague-Dawley, iv, 20 mg/kg, 1 day

AUC0–3 h ([1]; Chinese formulation (AS/NaHCO3), 20 mg/kg i.v. daily for 3 days, male rats, Period 1, Day 1): 867.5 ± 136.7 ng·h/mL
AUC0–3 h [1, 5]: 614.2 ± 191.8 ng·h/mL
Cmin [1, 5]: 4.35 ± 2.54 ng/mL
AUC0–3 h ([1]; Chinese formulation (AS/NaHCO3), 20 mg/kg i.v. daily for 3 days, male rats, Period 2, Day 1): 932.6 ± 144.2 ng·h/mL
AUC0–3 h [1, 6]: 665.4 ± 236.3 ng·h/mL
Cmin [1, 6]: 3.35 ± 2.11 ng/mL
Degree of Fluctuation = 100% × (Cmax − Cmin)/Cav [1, 6]: 1192 ± 219%
time at which Cmax was measured ([1]; Chinese formulation, 20 mg/kg i.v., rats, period 1, day 1): 5 min
time at which Cmax was measured ([1]; Chinese formulation, 20 mg/kg i.v., rats, period 2, day 1): 5 min
time at which Cmax was observed ([1]; Chinese formulation, 20 mg/kg i.v., rats, period 2, day 3): 5 min
AUC0–3 h ([1]; WRAIR formulation (AS/0.3M PBS Buffer), 20 mg/kg i.v. daily for 3 days, male rats, Period 1, Day 1, 20 mg/kg): 879.4 ± 167.4 ng·h/mL
Cmin ([1]; WRAIR formulation (AS/0.3M PBS Buffer), 20 mg/kg i.v. daily for 3 days, male rats, Period 1, Day 3): 3.56 ± 0.85 ng/mL
AUC0–3 h ([1]; WRAIR formulation (AS/0.3M PBS Buffer), 20 mg/kg i.v. daily for 3 days, male rats, Period 1, Day 3, 20 mg/kg): 611.1 ± 162.1 ng·h/mL
Cmin [1, 7]: 3.87 ± 1.57 ng/mL
Degree of Fluctuation = 100% X (Cmax − Cmin)/Cav [1, 7]: 1218 ± 172%
AUC0–3 h ([1]; WRAIR formulation (AS/0.3M PBS Buffer), 20 mg/kg i.v. daily for 3 days, male rats, Period 2, Day 3, 20 mg/kg): 669.7 ± 159.3 ng·h/mL
time at which Cmax was measured ([1]; WRAIR formulation, 20 mg/kg i.v., rats, period 1, day 1): 5 min
AS concentration on day 3 compared to day 1 ([1]; i.v. treatments in rats): one-third lower
Cmax [1, 8]: 4300 ng/mL
MRT [1, 8]: 15.6 ± 2.4 min
Tmax [1, 8]: 4.98 min
clearance [1, 8]: 380 ± 54.2 mL/min/kg
AUC(0-t) [1, 8]: 868 ng·h/mL
AUC [1, 8]: 872 ± 138 ng·h/mL
half-life ([1]; 20 mg/kg, Chinese formulation (AS/NaHCO3), 20 mg/kg i.v. daily for 3 days, male rats, Period 1, Day 1, read-out: t1/2 distribution (converted)): 3.6 ± 0.6 min
half-life ([1]; 20 mg/kg, Chinese formulation (AS/NaHCO3), 20 mg/kg i.v. daily for 3 days, male rats, Period 1, Day 1, read-out: t1/2 elimination (converted)): 24 ± 4.2 min
Cmax [1, 9]: 2460 ng/mL
MRT [1, 9]: 17.4 ± 6 min
Tmax [1, 9]: 4.98 min
average plasma concentration over 0–72 h (Cav = AUC0–72 h/72) [1, 9]: 204 ng·h/mL
clearance [1, 9]: 570 ± 170 mL/min/kg
AUC(0-t) [1, 9]: 614 ng·h/mL
AUC [1, 9]: 617 ± 193 ng·h/mL
half-life ([1]; 20 mg/kg, Chinese formulation (AS/NaHCO3), 20 mg/kg i.v. daily for 3 days, male rats, Period 1, Day 3, read-out: t1/2 distribution (converted)): 6 ± 1.8 min
half-life ([1]; 20 mg/kg, Chinese formulation (AS/NaHCO3), 20 mg/kg i.v. daily for 3 days, male rats, Period 1, Day 3, read-out: t1/2 elimination (converted)): 24.6 ± 6.6 min
Cmax [1, 10]: 4140 ng/mL
MRT [1, 10]: 15.6 ± 3 min
Tmax [1, 10]: 4.98 min
clearance [1, 10]: 360 ± 56.2 mL/min/kg
AUC(0-t) [1, 10]: 932 ng·h/mL
AUC [1, 10]: 935 ± 144 ng·h/mL
half-life ([1]; 20 mg/kg, Chinese formulation (AS/NaHCO3), 20 mg/kg i.v. daily for 3 days, male rats, Period 2, Day 1, read-out: t1/2 distribution (converted)): 4.8 ± 1.8 min
half-life ([1]; 20 mg/kg, Chinese formulation (AS/NaHCO3), 20 mg/kg i.v. daily for 3 days, male rats, Period 2, Day 1, read-out: t1/2 elimination (converted)): 25.8 ± 4.2 min
Cmax [1, 11]: 2540 ng/mL
MRT [1, 11]: 15.6 ± 5.4 min
Tmax [1, 11]: 4.98 min
clearance [1, 11]: 562 ± 240 mL/min/kg
AUC(0-t) [1, 11]: 665 ng·h/mL
AUC [1, 11]: 667 ± 238 ng·h/mL
half-life ([1]; 20 mg/kg, Chinese formulation (AS/NaHCO3), 20 mg/kg i.v. daily for 3 days, male rats, Period 2, Day 3, read-out: t1/2 distribution (converted)): 7.2 ± 1.8 min
half-life ([1]; 20 mg/kg, Chinese formulation (AS/NaHCO3), 20 mg/kg i.v. daily for 3 days, male rats, Period 2, Day 3, read-out: t1/2 elimination (converted)): 23.4 ± 7.8 min
Cmax [1, 12]: 4030 ng/mL
MRT [1, 12]: 18 ± 3.6 min
Tmax [1, 12]: 4.98 min
clearance [1, 12]: 378 ± 67.2 mL/min/kg
AUC(0-t) [1, 12]: 879 ng·h/mL
AUC [1, 12]: 882 ± 167 ng·h/mL
half-life ([1]; 20 mg/kg, WRAIR formulation (AS/0.3M PBS Buffer), 20 mg/kg i.v. daily for 3 days, male rats, Period 1, Day 1, read-out: t1/2 distribution (converted)): 4.8 ± 1.2 min
half-life ([1]; 20 mg/kg, WRAIR formulation (AS/0.3M PBS Buffer), 20 mg/kg i.v. daily for 3 days, male rats, Period 1, Day 1, read-out: t1/2 elimination (converted)): 24.6 ± 1.8 min
Cmax [1, 13]: 2430 ng/mL
MRT [1, 13]: 16.2 ± 5.4 min
Tmax [1, 13]: 4.98 min
average plasma concentration over 0–72 h (Cav = AUC0–72 h/72) [1, 13]: 204 ng·h/mL
clearance [1, 13]: 559 ± 118 mL/min/kg
AUC(0-t) [1, 13]: 611 ng·h/mL
AUC [1, 13]: 613 ± 163 ng·h/mL
half-life ([1]; 20 mg/kg, WRAIR formulation (AS/0.3M PBS Buffer), 20 mg/kg i.v. daily for 3 days, male rats, Period 1, Day 3, read-out: t1/2 distribution (converted)): 6 ± 2.4 min
half-life ([1]; 20 mg/kg, WRAIR formulation (AS/0.3M PBS Buffer), 20 mg/kg i.v. daily for 3 days, male rats, Period 1, Day 3, read-out: t1/2 elimination (converted)): 28.2 ± 6 min
Cmax [1, 14]: 4210 ng/mL
MRT [1, 14]: 16.8 ± 2.4 min
Tmax [1, 14]: 4.98 min
clearance [1, 14]: 387 ± 52.1 mL/min/kg
half-life ([1]; 20 mg/kg, WRAIR formulation (AS/0.3M PBS Buffer), 20 mg/kg i.v. daily for 3 days, male rats, Period 2, Day 1, read-out: t1/2 distribution (converted)): 4.8 ± 0.6 min
half-life ([1]; 20 mg/kg, WRAIR formulation (AS/0.3M PBS Buffer), 20 mg/kg i.v. daily for 3 days, male rats, Period 2, Day 1, read-out: t1/2 elimination (converted)): 26.4 ± 3.6 min
Cmax [1, 15]: 2710 ng/mL
MRT [1, 15]: 16.2 ± 3.6 min
Tmax [1, 15]: 4.98 min
clearance [1, 15]: 517 ± 162 mL/min/kg
AUC(0-t) [1, 15]: 670 ng·h/mL
AUC [1, 15]: 673 ± 160 ng·h/mL
half-life ([1]; 20 mg/kg, WRAIR formulation (AS/0.3M PBS Buffer), 20 mg/kg i.v. daily for 3 days, male rats, Period 2, Day 3, read-out: t1/2 distribution (converted)): 8.4 ± 1.2 min
half-life ([1]; 20 mg/kg, WRAIR formulation (AS/0.3M PBS Buffer), 20 mg/kg i.v. daily for 3 days, male rats, Period 2, Day 3, read-out: t1/2 elimination (converted)): 32.4 ± 11.4 min
total reticulocyte counts ([2]; 20 mg/kg AS intravenously, male and female rats, both formulations): significant reductions
all hematological parameters after recovery period ([2]; 20 mg/kg AS, 3 days post last dosing): reverted to normal
90% CI for T/R, Lower, AUCD1 [3, 16]: 88.72%
90% CI for T/R, Upper, AUCD1 [3, 16]: 111.28%
BE (bioequivalence), AUCD1 [3]: Yes
BE (bioequivalence), Cmax D1 [3]: Yes
90% CI between the two intravenous formulations, AUC0–3 h ([3]; iv): 88.72–111.28%
90% CI for the difference between the two i.v. formulations, AUC1–3D ([3]; iv): 87.65–112.35%
90% CI of the difference between the two intravenous formulations, AUCD3 ([3]; iv): 82.30–117.69%
Structure (SMILES): C[C@H]1[C@H](OC(=O)CCC(=O)O)O[C@@H]2O[C@@]3(C)CC[C@H]4[C@H](C)CC[C@@H]1[C@@]24OO3 [AS, artesunate]
time to completely inhibit parasite growth (malaria parasites): 2 to 4 h
time for parasitemia to fall by half (parasitemia): 3.18 h
elimination half-life (t1/2) [4]: 2 to 18 min
Cmax and AUC values on the last dose day compared to the first day ([4]; multiple oral treatments in malaria patients and healthy subjects): reduced by one-third to one-seventh
